# According to patent EP4461773A1, “FLUORESCENT HEMICRYPTOPHANES AND USES THEREOF” (Ecole Centrale de Marseille, priority 2023, dated 2024):
# Where two headings read alike, the source gives them in different places.
# What was measured:
# [1] = comparative data, stated as obtained according to the same procedure; footnotes cite New J. Chem. 2019 and GFP congress 2022; cited from earlier work
# [2] = in water at pH 7, estimated; cited from earlier work
# [3] = Fluorescence titration with chlordecone, binding constant calculated with Bindfit; conditions: compounds of the invention; DMSO+2% H2O, 25 °C, host 5.0 µM or 0.5 µM, chlordecone 5.0 mM additions
# Description: A solution of each hemicryptophane (2.5 mL, 5.0 µM for hosts 9 and 5 and 0.5 µM for host 8) in DMSO+2% H2O was transferred into the quartz cuvette. Successive additions of a concentrated chlordecone solution (5.0 mM in the same solvent mixture) were performed. The final volume of the solution was almost unchanged (2.5 mL) since very small volumes of chlordecone solution were added. The solutions were mixed and incubated for 30 s before irradiation at their maximum of excitation (274 nm, 297 nm and 349 nm for hosts 9, 5, 8 respectively) at 25 °C. The corresponding emission values during titration were then recorded. Fluorescence emission spectra are reproduced at Figures 1A (5), 1B (8), and 1C (9) and the relative fluorescence intensities as a function of the [chlordecone]/[hemicryptophane] are reproduced at Figures 2A (5), 2B (8), and 2C (9).
# Binding constant (Ka) were calculated using Bindfit program and results are reproduced at Table 1 below, further including comparative data obtained according to the same procedure.
SMILES,Binding constant (Ka) [1],other results
COc1cc2c3cc1OCCOc1ccc(cc1)CNC(=O)CN1CC(=O)NCc4ccc(cc4)OCCOc4cc(c(cc4OC)C3)Cc3cc(OC)c(cc3C2)OCCOc2ccc(cc2)CNC(=O)C1,[drawing 21] Ka = 126 L/mol ± 3.7%,
COc1cc2c3cc1OCCOc1ccc(cc1)CNCCN1CCNCc4ccc(cc4)OCCOc4cc(c(cc4OC)C3)Cc3cc(OC)c(cc3C2)OCCOc2ccc(cc2)CNCC1,[drawing 22] Ka = 2.1 x 10^4 L/mol ± 3.4%,
COc1cc2c3cc1OCCOc1ccc4cc(ccc4c1)CNCCN1CCNCc4ccc5cc(ccc5c4)OCCOc4cc(c(cc4OC)C3)Cc3cc(OC)c(cc3C2)OCCOc2ccc3cc(ccc3c2)CNCC1,[drawing 23] Ka = 6.4 x 10^3 L/mol ± 4.4%,
C(#Cc1cc2c3cc1OCCOc1ccc(cc1)CNCCN1CCNCc4ccc(cc4)OCCOc4cc(c(cc4C#Cc4ccccc4)C3)Cc3cc(C#Cc4ccccc4)c(cc3C2)OCCOc2ccc(cc2)CNCC1)c1ccccc1,[drawing 25] Ka = 1.4 x 10^5 L/mol ± 12%,
COc1cc2c3cc1OCCOc1ccc(cc1-c1ccccc1)CNCCN1CCNCc4ccc(c(-c5ccccc5)c4)OCCOc4cc(c(cc4OC)C3)Cc3cc(OC)c(cc3C2)OCCOc2ccc(cc2-c2ccccc2)CNCC1,[drawing 26] Ka = 1.9 x 10^4 L/mol ± 75%,
COc1cc2c3cc1OCCOc1ccc(cc1)CN(S(=O)(=O)c1cccc4c(N(C)C)cccc14)CCN1CCN(S(=O)(=O)c4cccc5c(N(C)C)cccc45)Cc4ccc(cc4)OCCOc4cc(c(cc4OC)C3)Cc3cc(OC)c(cc3C2)OCCOc2ccc(cc2)CN(S(=O)(=O)c2cccc3c(N(C)C)cccc23)CC1,[drawing 27] Ka = 3.0 x 10^3 L/mol ± 6.9%,
O=C1C2(Cl)C3(Cl)C4(Cl)C(Cl)(Cl)C5(Cl)C3(Cl)C1(Cl)C5(Cl)C24Cl (centres unmarked) [Chlordecone],,solubility [2]: around 2 mg/L
COc1cc2c3cc1OCCNCc1cc(-c4ccccc4)ccc1OCc1cc4cc(c1)COc1ccc(-c5ccccc5)cc1CNCCOc1cc(c(cc1OC)Cc1cc(c(OC)cc1C3)OCCNCc1cc(-c3ccccc3)ccc1OC4)C2 [compound 9],,Binding constant (Ka) [3]: [drawing 20] Ka = 4.6 x 10^5 L/mol ± 17%
